Here are results for one molecule from US12156883B2, “Bisphosphocin gel formulations and uses thereof” (Lakewood Amedex, Inc., priority 2017, dated 2024).

Each structure is given as a SMILES string. “Also recorded” adds a separate entry of the source.

The test relates to methicillin resistant Staphylococcus aureus strain USA300 (TPPS 1056). Briefly: Staphylococcus aureus-induced murine dermal infection model. The test is classed as in vivo. The note with it: female SKH1 mice, topical 10% Nu-3 fatty alcohol-based gel pH 1.5, 4 h after challenge. As for the experimental part: Female SKH1 mice ordered from Charles River Laboratories are acclimated to housing conditions and handled in accordance with Animal Use Protocol (AUP) number TP-18. The animals are acclimated for a minimum of 24 hours prior to bacterial challenge and are 6-8 weeks old on Day 0 of the experiment. Only animals deemed healthy are included in this study. Animals are fed irradiated Teklad Global Rodent Diet 2918 and water ad libitum. Mice are housed in static cages with irradiated Teklad ⅛″ corn cob bedding 7902 inside bioBubble® Clean Rooms that provide H.E.P.A. filtered air into the bubble environment at 100 complete air changes per hour. All treatments and infectious challenges are carried out in a BSL2 surgical suite. The environment is controlled to a temperature range of 74°±4° F. and a humidity range of 30-70%. […]
Immediately following tape stripping, each animal receives a topical application with approximately 6.0 log10 CFU per mouse in a volume of 100 μL spread in an area approximately 0.75″×0.75″. […] The final CFU count from the challenge suspension determined that 5.6 log10 CFU per mouse is delivered. […]
Following euthanasia, a section of excised skin approximately 0.5″×0.5″ is aseptically removed from the infected/treated area and transferred to vials with 2.0 mL of sterile water and weighed. […] Tissue pH is measured using litmus paper and recorded. […]

For the molecule `CCCCOP(=O)(O)OC[C@H]1OC(n2cc(C)c(=O)[nH]c2=O)C[C@@H]1OP(=O)(O)OCCCC` (stereo partly drawn) [Nu-3, (2R,3S)-2-((butoxy(hydroxy)phosphoryl)oxy)methyl)-5-(5-methyl-2,4-dioxo-3,4-dihydropyrimidin-1(2H)-yl)tetrahydrofuran-2-yl) butyl hydrogen phosphate], the “CFU burden compared to untreated control animals” value (5 and 12 hours post-challenge) was “significant decreases; also recorded: significantly decreases”. For the setting “all harvest time points”, the “CFU burden compared to vehicle-treated animals” value is “significant decreases; also recorded: significantly decreases”.
